# Measurements published in patent publication US20020002198A1, “Chemical synergy to elevate growth hormone release in vertebrates” (priority 2000, published 2002).
# Legend:
# [1] = cited from earlier work
# GH release [2] = assay: Serum GH at 1.5 hours post night time sleep after oral ingestion, antibody capture technique, healthy volunteer; format: in vivo, human; details: for Augmentation of GH release at 1.5 hours post sleep (in words): oral at night sleep
# Protocol: Measurements of GH release occurring at 1.5 hours post sleep were performed on serum samples from a healthy volunteer. Controls and serum analysis for GH were measured by standard commercially avialable antibody capture technique. Experiments and measurement of results occurred between June and October 2000. Each single night experimental serum collection was separated from any other experiments by 1 week. All determinations represent averaged value of triple determinations. […] Measurements were each performed on serum collected 1.5 hours post night time sleep. Choice of 1.5 hours post sleep represents one complete sleep cycle with slow wave sleep during which GH is released. Oral ingestions of stated substances occurred just before night sleep. The normal range of serum GH at 1.5 hours post sleep is in the 1-10 nanograms per milliliter (ng/ml) range. The variance in measurement precision is given by the second value. All experiments were preceded by a period of 3-4 hours since the last meal.
# [3] = test system: mitochondrial maximal energy production; details: pharmacological levels, intravenous, aged animals, within an hour or two; cited from earlier work
# [4] = oral ingestion, humans; cited from earlier work
# GH release [5] = details: cited from earlier work
# [6] = in vivo; cited from earlier work
smiles,measurement,setting,value
"CC(=O)O[C@H](CC(=O)[O-])C[N+](C)(C)C [Acetyl-l-carnitine, acetyl-l-carnitine]",Safety in long human testing (in words),"[1]; 2.5-7 grams per day, Alzheimer's disease treatment",without reported negative consequences
same,Toxicity sets in at,[1]; comparable to normal nutritional amino acids,about 1 % of body weight
same,Measured GH,"GH release [2]; 500 mg of the single substance alone, oral at sleep, 1.5 hour post sleep serum collection, 3-4 hours after last meal, control […] ± 0.2",0.55 ± 0.1 ng/mL
same,Augmentation of GH release at 1.5 hours post sleep (in words),GH release [2],absence of effect
same,Restoration of mitochondrial maximal energy production (in words),[3],restore mitochondrial maximal energy production to youthful levels
same,Maximal immediately absorbed dose,[4],500 to 2000 milligrams
N=C(N)NCCC[C@H](N)C(=O)O [l-arginine],Lowest oral dose that augmented normal night time GH release,GH release [5],greater than 3 grams
same,Elevation of growth hormone secretion (in words),"GH release [5]; oral, alone, doses of up to 6 gram at night",does not elevate growth hormone secretion
NCCC[C@H](N)C(=O)O [l-ornithine],Augmentation of GH release at 1.5 hours post sleep (in words),GH release [2],absence of effect
NCCCCN [putrescine],Toxicity when administered systematically (in words),[6],considerably less toxic
NCCCCNCCCN [spermidine],Toxicity when administered systematically (in words),[6],considerably less toxic
NCCCNCCCCNCCCN [spermine],Toxicity when administered systematically (in words),[6],significant toxicity
